According to patent US8012711B2, “Methods of screening for compounds that reduce microbial resistance to fluoroquinolones” (priority 1999, dated 2011):
≈ marks a conversion by molar mass, not a printed value. Read-outs that look alike come from different tables or passages of the source.

Legend:
[1] = tested on: Escherichia coli K-12 AG100, its Mar mutant AG112 and derived fluoroquinolone-resistant mutants (acrAB+); experiment: MIC by broth microdilution, acrAB+ strains; format: cell-based; conditions: for MIC: Escherichia coli; for Ofx MIC: with AcrAB
Protocol: Selection of fluoroquinolone-resistant mutants. 1-AG100, 2°-AG100, 3*-AG100, 4*-AG100 and 1′-AG112, 2′-AG112, 3′-AG112 were sequential step mutants derived from AG 100 and AG112, respectively, on solid media. For each step, about 10^11 cells of an overnight culture were plated on several LB agar plates supplemented with increasing concentrations of OFL. Single colonies were further purified on OFL-supplemented agar plates. Mutant 2°-AG100 came out of one series, while mutants 3*- and 4*-AG100 came from a second series.
(§1) Susceptibility testing. MICs of selected antimicrobial agents were determined by a standard broth microdilution procedure with cation-adjusted Mueller-Hinton broth (Becton Dickinson, Cockeysville, Md.) and an inoculum of 5×10^5 CFU/ml according to NCCLS performance and interpretive guidelines (NCCLS. 1997. Methods for dilution antimicrobial susceptibility. Tests for bacteria that grow aerobically—Fourth Edition; Approved Standard. NCCLS document M7-A4 (ISBN 1-56238-309-4). NCCLS, 940 West Valley Road, Suite 1400, Wayne, Pa. 19087). Antimicrobial agents on the commercially available microtiter plates (Merlin Diagnostics GmbH, Bornheim, Germany) included the FQs ciprofloxacin (CIP), enoxacin, fleroxacin, nor-flo-xacin, ofloxacin (OFL), pefloxacin, sparfloxacin (SPX), and trovafloxacin (TVA). They also included tetracycline (TET), chloramphenicol (CML), trimethoprim (TMP), cefoxitin (CFOX), cefaclor, cefixim and loracarbef. MICs of bile salts were determined by a broth macrodilution procedure: sodium cholate and sodium deoxycholate were serially diluted twofold in LB broth and tubes inoculated at 5×10^5 CFU/ml. MICs of both antibiotics and bile salts were determined twice in independent experiments with reproducible results.

[2] = tested on: Escherichia coli AG100, AG112 and derived fluoroquinolone-resistant mutants with ΔacrAB; experiment: MIC by broth microdilution, AcrAB-deleted strains; format: cell-based; conditions: for MIC: Escherichia coli; for Ofx MIC: AcrAB knocked out
Protocol: as §1
P1 transduction. […] DNA sequencing.

[3] = tested on: Escherichia coli K-12 AG100, AG112 and derived fluoroquinolone-resistant mutants (wild-type acrAB); conditions: whole energized cells
[4] = tested on: Escherichia coli AG100, AG112 and derived mutants bearing ΔacrAB; conditions: all strains, energized cells
[5] = tested on: Escherichia coli K-12 AG100, its Mar mutant AG112 and derived fluoroquinolone-resistant mutants (acrAB+); experiment: MIC by broth microdilution, acrAB+ strains; format: cell-based
[6] = strain 1-AG100, acrAB+, read-out: MIC
[7] = strain 1-AG112 (1′-AG112), acrAB+, read-out: MIC
[8] = strain 2-AG100 (2°-AG100), acrAB+, read-out: MIC
[9] = strain 2-AG112 (2′-AG112), acrAB+, read-out: MIC
[10] = strain 3*-AG100, acrAB+, read-out: MIC
[11] = strain 3-AG112 (3′-AG112), acrAB+, read-out: MIC
[12] = strain 4*-AG100, acrAB+, read-out: MIC
[13] = strain AG100, acrAB+, read-out: MIC
[14] = strain AG112 (Mar mutant), acrAB+
[15] = strain 1-AG112 (1′-AG112), ΔacrAB
[16] = strain 2-AG100 (2°-AG100), ΔacrAB
[17] = strain 2-AG112 (2′-AG112), ΔacrAB
[18] = strain 3-AG112 (3′-AG112), ΔacrAB

CO[C@@]1(NC(=O)Cc2cccs2)C(=O)N2C(C(=O)O)=C(COC(N)=O)CS[C@@H]21 [CFOX, cefoxitin]
MIC [1, 6]: 4 µg/mL (≈ 9.36 µM)
MIC [1, 7]: 16 µg/mL (≈ 37.4 µM)
MIC [1, 8]: 16 µg/mL (≈ 37.4 µM)
MIC [1, 9]: 32 µg/mL (≈ 74.9 µM)
MIC [1, 10]: 32 µg/mL (≈ 74.9 µM)
MIC [1, 11]: 64 µg/mL (≈ 150 µM)
MIC [1, 12]: 32 µg/mL (≈ 74.9 µM)
MIC [1, 13]: 4 µg/mL (≈ 9.36 µM)
MIC [1, 14]: 32 µg/mL (≈ 74.9 µM)
MIC ([2]; strain 1-AG100, ΔacrAB): 0.5 µg/mL (≈ 1.17 µM)
MIC [2, 15]: 1 µg/mL (≈ 2.34 µM)
MIC [2, 16]: 0.5 µg/mL (≈ 1.17 µM)
MIC [2, 17]: 0.5 µg/mL (≈ 1.17 µM)
MIC ([2]; strain 3*-AG100, ΔacrAB): 0.5 µg/mL (≈ 1.17 µM)
MIC [2, 18]: 0.5 µg/mL (≈ 1.17 µM)
MIC ([2]; strain 4*-AG100, ΔacrAB): 1 µg/mL (≈ 2.34 µM)
MIC ([2]; strain AG100, ΔacrAB): 0.5 µg/mL (≈ 1.17 µM)
MIC ([2]; strain AG112, ΔacrAB): 1 µg/mL (≈ 2.34 µM)

O=C(O)c1cn(C2CC2)c2cc(N3CCNCC3)c(F)cc2c1=O [CIP, ciprofloxacin]
MIC [1, 6]: 0.25 µg/mL (≈ 0.754 µM)
MIC [1, 7]: 0.5 µg/mL (≈ 1.51 µM)
MIC ([1]; strain 2-AG100 (2°-AG100), acrAB+): 0.5 µg/mL (≈ 1.51 µM)
MIC [1, 9]: 2 µg/mL (≈ 6.04 µM)
MIC [1, 10]: 1 µg/mL (≈ 3.02 µM)
MIC [1, 11]: 4 µg/mL (≈ 12.1 µM)
MIC [1, 12]: 2 µg/mL (≈ 6.04 µM)
MIC [1, 13]: ≤ 0.015 µg/mL
MIC [1, 14]: 0.06 µg/mL (≈ 0.181 µM)
MIC ([2]; strain 1-AG100, ΔacrAB): 0.06 µg/mL (≈ 0.181 µM)
MIC [2, 15]: 0.03 µg/mL (≈ 0.0905 µM)
MIC [2, 16]: 0.06 µg/mL (≈ 0.181 µM)
MIC [2, 17]: 0.03 µg/mL (≈ 0.0905 µM)
MIC ([2]; strain 3*-AG100, ΔacrAB): 0.06 µg/mL (≈ 0.181 µM)
MIC [2, 18]: 0.03 µg/mL (≈ 0.0905 µM)
MIC ([2]; strain 4*-AG100, ΔacrAB): 0.125 µg/mL (≈ 0.377 µM)
MIC ([2]; strain AG100, ΔacrAB): ≤ 0.015 µg/mL
MIC ([2]; strain AG112, ΔacrAB): ≤ 0.015 µg/mL
Time at which CIP accumulation reached a plateau [3]: ≤ 5 min
Active efflux of ciprofloxacin upon deletion of AcrAB [4]: completely aborted
Active efflux of ciprofloxacin upon deletion of AcrAB ([4]; listed as cfx): completely abolished

O=C(N[C@H](CO)[C@H](O)c1ccc([N+](=O)[O-])cc1)C(Cl)Cl [CML, chloramphenicol]
MIC [1, 6]: 4 µg/mL (≈ 12.4 µM)
MIC [1, 7]: 32 µg/mL (≈ 99 µM)
MIC [1, 8]: 16 µg/mL (≈ 49.5 µM)
MIC [1, 9]: 64 µg/mL (≈ 198 µM)
MIC [1, 10]: 32 µg/mL (≈ 99 µM)
MIC [1, 11]: 64 µg/mL (≈ 198 µM)
MIC [1, 12]: 64 µg/mL (≈ 198 µM)
MIC [1, 13]: 4 µg/mL (≈ 12.4 µM)
MIC [1, 14]: 16 µg/mL (≈ 49.5 µM)
MIC ([2]; strain 1-AG100, ΔacrAB): 1 µg/mL (≈ 3.09 µM)
MIC [2, 15]: 1 µg/mL (≈ 3.09 µM)
MIC [2, 16]: 1 µg/mL (≈ 3.09 µM)
MIC [2, 17]: 1 µg/mL (≈ 3.09 µM)
MIC ([2]; strain 3*-AG100, ΔacrAB): 1 µg/mL (≈ 3.09 µM)
MIC [2, 18]: 1 µg/mL (≈ 3.09 µM)
MIC ([2]; strain 4*-AG100, ΔacrAB): 1 µg/mL (≈ 3.09 µM)
MIC ([2]; strain AG100, ΔacrAB): 1 µg/mL (≈ 3.09 µM)
MIC ([2]; strain AG112, ΔacrAB): 1 µg/mL (≈ 3.09 µM)

CC1COc2c(N3CCN(C)CC3)c(F)cc3c(=O)c(C(=O)O)cn1c23 (centres unmarked) [OFL, ofloxacin]
Enhancement of ofx resistance by in-vitro amplification ([1]; AG100, four steps, 0.03 mg/l to 4 mg/l): 128 fold
Ofx MIC ([1]; AG100 series, 1st step mutant): 0.25 mg/L
Ofx MIC ([1]; AG100 series, 2nd step mutant): 1.0 mg/L
Ofx MIC ([1]; AG100 series, 3rd step mutant): 2.0 mg/L
Ofx MIC ([1]; AG100 series, 4th step mutant): 4.0 mg/L
Ofx MIC ([1]; AG100 series, parent): 0.03 mg/L
Ofx MIC ([1]; AG102 series, 2nd step mutant): 4.0 mg/L
Ofx MIC ([1]; AG102 series, 3rd step mutant): 8.0 mg/L
Ofx MIC ([1]; AG102 series, parent (Mar mutant)): 0.125 mg/L
MIC [1, 6]: 0.25 µg/mL (≈ 0.692 µM)
MIC [1, 7]: 1 µg/mL (≈ 2.77 µM)
MIC [1, 8]: 1 µg/mL (≈ 2.77 µM)
MIC [1, 9]: 4 µg/mL (≈ 11.1 µM)
MIC [1, 10]: 2 µg/mL (≈ 5.53 µM)
MIC [1, 11]: 8 µg/mL (≈ 22.1 µM)
MIC [1, 12]: 4 µg/mL (≈ 11.1 µM)
MIC [1, 13]: 0.03 µg/mL (≈ 0.083 µM)
MIC [1, 14]: 0.125 µg/mL (≈ 0.346 µM)
Fold increase of OFL MIC ([1]; strain 1-AG100, as compared to AG100 (wild-type)): 8 fold
Fold increase of OFL MIC ([1]; strain 1-AG112 (1′-AG112), as compared to AG100 (wild-type)): 32 fold
Fold increase of OFL MIC ([1]; strain 2-AG100 (2°-AG100), as compared to AG100 (wild-type)): 32 fold
Fold increase of OFL MIC ([1]; strain 2-AG112, as compared to AG100 (wild-type)): 128 fold
Fold increase of OFL MIC ([1]; strain 3*-AG100, as compared to AG100 (wild-type)): 64 fold
Fold increase of OFL MIC ([1]; strain 3-AG112, as compared to AG100 (wild-type)): 256 fold
Fold increase of OFL MIC ([1]; strain 4*-AG100, as compared to AG100 (wild-type)): 128 fold
Fold increase of OFL MIC ([1]; strain AG112, as compared to AG100 (wild-type)): 4 fold
Increase of resistance to OFL by the first mutation step ([1]; {}): 8 fold
Ofx MIC ([2]; AG100 series, 1st step mutant): 0.06 mg/L
Ofx MIC ([2]; AG100 series, 2nd step mutant): 0.06 mg/L
Ofx MIC ([2]; AG100 series, 3rd step mutant): 0.06 mg/L
Ofx MIC ([2]; AG100 series, 4th step mutant): 0.125 mg/L
Ofx MIC ([2]; AG100 series, parent): < 0.015 mg/L
Ofx MIC ([2]; AG102 series, 1st step mutant): 0.06 mg/L
Ofx MIC ([2]; AG102 series, 2nd step mutant): 0.06 mg/L
Ofx MIC ([2]; AG102 series, 3rd step mutant): 0.06 mg/L
Ofx MIC ([2]; AG102 series, parent): < 0.015 mg/L
MIC ([2]; strain 1-AG100, ΔacrAB): 0.06 µg/mL (≈ 0.166 µM)
MIC [2, 15]: 0.06 µg/mL (≈ 0.166 µM)
MIC [2, 16]: 0.06 µg/mL (≈ 0.166 µM)
MIC [2, 17]: 0.06 µg/mL (≈ 0.166 µM)
MIC ([2]; strain 3*-AG100, ΔacrAB): 0.06 µg/mL (≈ 0.166 µM)
MIC [2, 18]: 0.06 µg/mL (≈ 0.166 µM)
MIC ([2]; strain 4*-AG100, ΔacrAB): 0.125 µg/mL (≈ 0.346 µM)
MIC ([2]; strain AG100, ΔacrAB): ≤ 0.015 µg/mL
MIC ([2]; strain AG112, ΔacrAB): ≤ 0.015 µg/mL
Enhancement of ofx resistance by in-vitro amplification ([5]; AG102, three steps, 0.125 mg/l to 8 mg/l): 64 fold
Ofx MIC ([5]; AG102 series, 1st step mutant, with AcrAB): 1.0 mg/L
